The values below come from US6369088B2, “Substituted 3-phenyl-5-alkoxy-1,3,4-oxadiazol-2-ones, their preparation and their use as pharmaceuticals” (Aventis Pharma Deutschland GmbH, priority 2000, dated 2002).

Data set [1] addresses T1, hormone-sensitive lipase (HSL) (Rattus norvegicus, UniProt P15304).
T1 construct: Isolated rat fat cells were obtained from epididymal adipose tissue; from tissue; host or cells: rat epididymal adipose tissue (isolated fat cells, Wistar rats)
T1 sequence (P15304 1-768 isoform P15304-2): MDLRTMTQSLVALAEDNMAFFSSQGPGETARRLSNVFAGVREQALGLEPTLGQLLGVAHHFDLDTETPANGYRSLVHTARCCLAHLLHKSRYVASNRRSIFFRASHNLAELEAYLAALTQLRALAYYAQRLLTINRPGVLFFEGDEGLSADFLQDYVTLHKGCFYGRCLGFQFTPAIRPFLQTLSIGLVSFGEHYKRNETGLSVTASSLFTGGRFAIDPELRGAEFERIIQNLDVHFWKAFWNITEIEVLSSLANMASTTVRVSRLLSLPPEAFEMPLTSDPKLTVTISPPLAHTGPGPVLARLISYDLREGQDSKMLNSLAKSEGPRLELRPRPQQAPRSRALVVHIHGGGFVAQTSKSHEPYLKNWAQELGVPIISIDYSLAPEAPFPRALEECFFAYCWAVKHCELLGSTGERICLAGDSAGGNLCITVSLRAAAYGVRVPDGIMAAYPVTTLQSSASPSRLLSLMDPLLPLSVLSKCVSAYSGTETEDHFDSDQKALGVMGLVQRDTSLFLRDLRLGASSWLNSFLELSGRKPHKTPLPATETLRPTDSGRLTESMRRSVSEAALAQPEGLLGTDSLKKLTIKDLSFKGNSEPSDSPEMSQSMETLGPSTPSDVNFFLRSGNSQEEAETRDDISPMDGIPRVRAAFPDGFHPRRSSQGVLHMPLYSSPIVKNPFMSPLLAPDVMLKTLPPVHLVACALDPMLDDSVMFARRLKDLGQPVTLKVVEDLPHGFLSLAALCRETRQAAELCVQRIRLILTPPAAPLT
The data set is described as follows: HSL enzyme assay: [3H]trioleoylglycerol hydrolysis by partially purified HSL. Format: biochemical. The settings on record: partially purified HSL from rat fat cells; [3H]trioleoylglycerol substrate; 37° C., 30 min; read-out: IC50. The procedure: The effect of the compounds of the invention on HSL was tested using the following enzyme assay system:
Preparation of Partially Purified HSL:
The fat cells from 10 rats were washed three times by flotation with 50 ml each time of homogenization buffer ([…] tris/HCl, pH 7.4, 0.25 M sucrose, 1 mM EDTA, 1 mM DTT, 10 μg/ml leupeptin, 10 μg/ml antipain, 20 μg/ml pepstatin) and finally taken up in 10 ml of homogenization buffer. The fat cells were homogenized in a Teflon-in-glass homogenizer (Braun-Melsungen) by 10 strokes at 1500 rpm and 15° C. The homogenate was centrifuged (Sorvall SM24 tubes, 5000 rpm, 10 min, 4° C.). The subnatant between the fatty layer at the top and the pellet was removed and the centrifugation was repeated. The subnatant resulting therefrom was recentrifuged (Sorvall SM24 tubes, 20000 rpm, 45 min, 4° C.). […] After the mixture had been incubated at 4° C. for 60 min (shaking at 15-min intervals), it was centrifuged (Sorvall SM24 tubes, 3000 rpm, 10 min, 4° C.). The supernatant was adjusted to pH 5.2 by adding glacial acetic acid and incubated at 4° C. for 30 min. The precipitates were collected by centrifugation (Sorvall SS34, 12000 rpm, 10 min, 4° C.) and suspended in 2.5 ml of 20 mM tris/HCl, pH 7.0,1 mM EDTA, 65 mM NaCl, 13% sucrose, 1 mM DTT, 10 μg/ml leupeptin/pepstatin/antipain. The suspension was dialyzed against 25 mM tris/HCl, pH 7.4, 50% glycerol, 1 mM DTT, 10 μg/ml leupeptin, pepstatin, antipain at 4° C. overnight and then loaded onto a hydroxy apatite column (0.1 g per 1 ml of suspension, equilibrated with 10 mM potassium phosphate, pH 7.0, 30% glycerol, 1 mM DTT). The column was washed with four volumes of equilibration buffer at a flow rate of 20 to 30 ml/h. The HSL was eluted with one volume of equilibration buffer containing 0.5 M potassium phosphate, and then dialyzed (see above) and concentrated 5- to 10-fold by ultrafiltration (Amicon Diaflo PM 10 filter) at 4° C. The partially purified HSL can be stored at −70° C. for 4 to 6 weeks.
To prepare the substrate, 25-50 μCi of [^3H]trioleoylglycerol (in toluene), 6.8 μmol of unlabeled trioleoylglycerol and 0.6 mg of phospholipids (phosphatidylcholine/phosphatidylinositol 3:1 w/v) were mixed, dried with N2 and then taken up in 2 ml of 0.1 M KPi (pH 7.0) by ultrasonic treatment (Branson 250, microtip, setting 1-2, 2×1 min at 1-min intervals). After addition of 1 ml of KPi and renewed ultrasonic treatment (4×30 sec on ice in 30-sec intervals), 1 ml of 20% BSA (in KPi) was added (final concentration of trioleoylglycerol 1.7 mM). For the reaction, 100 μl of substrate solution were pipetted into 100 μl of HSL solution (HSL prepared as above, diluted in 20 mM KPi, pH 7.0, 1 mM EDTA, 1 mM DTT, 0.02% BSA, 20 μg/ml pepstatin, 10 μg/ml leupeptin) and incubated at 37° C. for 30 min. […] After phase separation, one equivalent of the upper phase (1 ml) was removed and the radioactivity was determined by liquid scintillation measurement.
Substances were normally tested in four independent mixtures. The inhibition of the HSL enzymatic activity by a test substance was determined by comparison with an uninhibited control reaction. The IC50 was calculated via an inhibition plot with at least 10 concentrations of the test substance. The data was analyzed using the software package GRAPHIT, Elsevier-BIOSOFT.

pIC50: −log10 of the molar value. Where a name gives a salt, the structure may show the parent alone.

As a reminder, the pIC50 is the IC50 on a negative log10 scale, so that one unit is a factor of ten. What is called melting point is the temperature of the solid-liquid transition. The compound `COc1nn(-c2cccc(OCc3ccc(F)cc3)c2[N+](=O)[O-])c(=O)o1` [Example 22, 5-Methoxy-3-(3-(4-fluorobenzyloxy)-2-nitrophenyl)-3H-(1,3,4)oxadiazol-2-one] returned a melting point of 99 °C. Moreover, the pIC50 in data set [1] was 6.00.
Take `COc1nn(-c2ccc(N)c(C)c2)c(=O)o1` [Example 28, 5-Methoxy-3-(4-amino-3-methylphenyl)-3H-(1,3,4)oxadiazol-2-one]: the melting point came to 114 °C. In addition, in data set [1], the pIC50 was 5.22.
Regarding `CCCCCCCC(=O)Nc1ccc(-n2nc(OC)oc2=O)cc1C` [Example 32, 5-Methoxy-3-(4-octanoylamino-3-methylphenyl)-3H-(1,3,4)oxadiazol-2-one], the melting point is 110 °C. The negative logarithm of the IC50 (pIC50) in data set [1] was 5.52.
In turn, `CCCCCCCc1ccc(C(=O)Nc2ccc(-n3nc(OC)oc3=O)cc2)cc1` [Example 33, 5-Methoxy-3-(4-(4-heptylbenzoylamino)phenyl)-3H-(1,3,4)oxadiazol-2-one] came in with a melting point of 155 °C. Further, the pIC50 in data set [1] was 6.70.
The corresponding values for `CCCCc1ccc(S(=O)(=O)Nc2ccc(-n3nc(OC)oc3=O)cc2)cc1` [Example 34, 5-Methoxy-3-(4-(4-butylphenylsulfonylamino)phenyl)-3H-(1,3,4)oxadiazol-2-one] are 135 °C and 6.00.
The corresponding values for `COc1nn(-c2ccc(NS(=O)(=O)c3ccc(Cl)cc3)c(C)c2)c(=O)o1` [Example 37, 5-Methoxy-3-(4-(4-chlorophenylsulfonylamino)-3-methylphenyl)-3H-(1,3,4)oxadiazol-2-one] are 147 °C and 6.00.
The corresponding values for `COc1nn(-c2ccc(NS(=O)(=O)c3cccc4ccccc34)c(C)c2)c(=O)o1` [Example 38, 5-Methoxy-3-(4-(1-naphthylsulfonylamino)-3-methylphenyl)-3H-(1,3,4)oxadiazol-2-one] are 123 °C and 6.00.
Regarding `COc1nn(-c2ccc(NS(=O)(=O)C=Cc3ccccc3)c(C)c2)c(=O)o1` [Example 39, 5-Methoxy-3-(4-(2-phenylethenylsulfonylamino)-3-methylphenyl)-3H-(1,3,4)oxadiazol-2-one], the melting point was 129 °C. Also, the pIC50 in data set [1] is 6.00.
The corresponding values for `COc1nn(-c2ccc(NC(=O)Nc3ccc(Cl)c(Cl)c3)c(C)c2)c(=O)o1` [Example 42, 5-Methoxy-3-(4-(3,4-dichlorophenylaminocarbonylamino)-3-methylphenyl)-3H-(1,3,4)oxadiazol-2-one] are 210 °C and 6.00.
Taken in the same sequence, the figures for `COc1nn(-c2ccc(NC(C)=CC(C)=O)c(C)c2)c(=O)o1` [Example 53, 5-Methoxy-3-(4-(4-oxopent-2-en-2-ylamino)-3-methylphenyl)-3H-(1,3,4)oxadiazol-2-one] were 143 °C and 6.00.
As to `COc1nn(-c2ccc(NC(=O)OCc3ccccc3Cl)c(C)c2)c(=O)o1` [Example 62, 5-Methoxy-3-(3-methyl-4-(2-chlorobenzyloxycarbonylamino)phenyl)-3H-(1,3,4)oxadiazol-2-one], the melting point was 161 °C. Besides, the pIC50 in data set [1] was 6.52.
For the compound `COc1nn(-c2ccc(NC(=O)OCc3ccccc3)cc2C)c(=O)o1` [Example 65, 5-Methoxy-3-(2-methyl-4-benzyloxycarbonylaminophenyl)-3H-(1,3,4)oxadiazol-2-one], the melting point came out at 112 °C. Further, in data set [1], the pIC50 was 6.00.
The corresponding values for `CCCCCCCc1ccc(C(=O)Nc2ccc(-n3nc(OC)oc3=O)c(Cl)c2)cc1` [Example 71, 5-Methoxy-3-(2-chloro-4-(4-heptylbenzoylamino)phenyl)-3H-(1,3,4)oxadiazol-2-one] are 135 °C and 7.70.
As to `CCOc1nn(-c2ccc(NC(=O)OCc3ccccc3)c(C)c2)c(=O)o1` [Example 74, 5-Ethoxy-3-(3-methyl-4-benzyloxycarbonylaminophenyl)-3H-(1,3,4)oxadiazol-2-one], the melting point was 94 °C. Also, the pIC50 in data set [1] was 7.40.
Turning to `CCCCCCOc1ccc(CNc2ccc(-n3nc(OC)oc3=O)cc2)cc1` [Example 142, 3-[4-(4-Hexyloxybenzylamino)phenyl]-5-methoxy-3H-[1,3,4]oxadiazol-2-one trifluoroacetate], the pIC50 in data set [1] is 6.70.
As to `CCOc1ccccc1NC(=O)Nc1ccc(-n2nc(OC)oc2=O)cc1` [Example 152, 1-(2-Ethoxyphenyl)-3-[4-(5-methoxy-2-oxo-[1,3,4]oxadiazol-3-yl)phenyl]urea], the pIC50 in data set [1] was 6.70.
Consider `CCCCCC=CCCCNc1cccc(-n2nc(OC)oc2=O)c1` [Example 171, 3-(3-Dec-4-enylaminophenyl)-5-methoxy-3H-[1,3,4]oxadiazol-2-one trifluoroacetate], for which the pIC50 in data set [1] was 6.22.
